# Values joined by “and” are separate entries in the source; they are usually repeats but may differ in a detail not shown here. Equal values may be shown once.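 Compound exposure: 48 hours, 5 concentrations, 96-well plates. Abbreviation: GI50, concentration required for 50% inhibition of growth. TGI: concentration producing complete growth inhibition.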
# What was measured:
# Assay in all cases: NCI tumour cell line growth inhibition, 48 h
# [1] = tested on: A498 renal
# [2] = tested on: A549 NSCLC
# [3] = tested on: CAKI-1 renal
# [4] = tested on: CCRF-CEM leukemia
# [5] = tested on: COLO 205 colon
# [6] = tested on: DLD-1 colon
# [7] = tested on: DMS 114 small cell lung
# [8] = tested on: DMS 273 small cell lung
# [9] = tested on: EKVX NSCLC
# [10] = tested on: HCC-2998 colon
# [11] = tested on: HCT-116 colon
# [12] = tested on: HCT-15 colon
# [13] = tested on: HL-60(TB) leukemia
# [14] = tested on: HOP-18 NSCLC
# [15] = tested on: HOP-62 NSCLC
# [16] = tested on: HOP-92 NSCLC
# [17] = tested on: HT29 colon
# [18] = tested on: IGROV1 ovarian
# [19] = tested on: K-562 leukemia
# [20] = tested on: KM12 colon
# [21] = tested on: KM20L2 colon
# [22] = tested on: LOX IMVI melanoma
# [23] = tested on: M19-MEL melanoma
# [24] = tested on: MALME-3M melanoma
# [25] = tested on: MCF7 breast
# [26] = tested on: MOLT-4 leukemia
# [27] = tested on: NCI-H226 lung
# [28] = tested on: NCI-H23 lung
# [29] = tested on: NCI-H460 lung
# [30] = tested on: NCI-H522 lung
# [31] = tested on: NCI/ADR-RES ovarian
# [32] = tested on: OVCAR-3 ovarian
# [33] = tested on: OVCAR-4 ovarian
# [34] = tested on: OVCAR-5 ovarian
# [35] = tested on: OVCAR-8 ovarian
# [36] = tested on: P388 leukemia
# [37] = tested on: P388/ADR leukemia
# [38] = tested on: RPMI-8226 leukemia
# [39] = tested on: RXF 393 renal
# [40] = tested on: SF-268 CNS
# [41] = tested on: SF-295 CNS
# [42] = tested on: SF-539 CNS
# [43] = tested on: SK-MEL-2 melanoma
# [44] = tested on: SK-MEL-28 melanoma
# [45] = tested on: SK-MEL-5 melanoma
# [46] = tested on: SK-OV-3 ovarian
# [47] = tested on: SN12C renal
# [48] = tested on: SN12K1 renal
# [49] = tested on: SNB-19 CNS
# [50] = tested on: SNB-75 CNS
# [51] = tested on: SNB-78 CNS
# [52] = tested on: SW-620 colon
# [53] = tested on: U251 CNS
# [54] = tested on: UACC-257 melanoma
# [55] = tested on: UACC-62 melanoma
# [56] = tested on: UO-31 renal
# [57] = tested on: XF 498 CNS
# [58] = tested on: 786-0 renal
# [59] = tested on: ACHN renal
# [60] = tested on: LXFL 529 NSCLC
# [61] = tested on: M14 melanoma
# [62] = tested on: RXF-631 renal
# [63] = tested on: SR leukemia
# [64] = tested on: TK-10 renal
smiles,measurement,setting,value
CC(=O)OC1CC2(O)C(CCC3(C)C(c4ccc(=O)oc4)CCC32O)C2(C)CCC(O)C=C12 (centres undefined),TGI,[1],310 nM and 176 nM
same,GI50,[2],6.24 nM
same,TGI,[2],27.2 nM
same,GI50,[3],15 nM
same,TGI,[3],124 nM and 42.5 nM
same,GI50,[4],3.87 nM and 37.5 nM
same,TGI,[4],51.9 nM and 40.5 nM
same,TGI,[5],168 nM and 139 nM
same,GI50,[6],15.2 nM
same,TGI,[6],107 nM and 58.3 nM
same,TGI,[7],16.4 nM
same,GI50,[8],37.5 nM
same,TGI,[8],71.4 nM and 47.8 nM
same,GI50,[9],37.5 nM
same,TGI,[9],123 nM and 47.7 nM
same,GI50,[10],43.7 nM
same,TGI,[10],357 nM and 195 nM
same,GI50,[11],4.98 nM
same,TGI,[11],104 nM and 47.7 nM
same,GI50,[12],37.5 nM
same,TGI,[12],209 nM and 147 nM
same,GI50,[13],37.5 nM
same,TGI,[13],14.4 nM and 71 nM
same,GI50,[14],37.5 nM
same,TGI,[14],75 nM and 436 nM
same,GI50,[15],12.3 nM
same,TGI,[15],105 nM and 48 nM
same,GI50,[16],37.5 nM
same,TGI,[16],374 nM and 86.9 nM
same,GI50,[17],59.2 nM
same,GI50,[18],37.5 nM
same,TGI,[18],351 nM and 242 nM
same,GI50,[19],12.8 nM
same,TGI,[19],256 nM and 178 nM
same,GI50,[20],33 nM and 81.4 nM
same,TGI,[20],213 nM and 676 nM
same,GI50,[21],37.5 nM
same,TGI,[21],191 nM and 187 nM
same,GI50,[22],37.5 nM
same,TGI,[22],126 nM and 57.3 nM
same,GI50,[23],37.5 nM
same,TGI,[23],187 nM and 111 nM
same,GI50,[24],11.2 nM
same,TGI,[24],46.9 nM
same,GI50,[25],17.3 nM
same,TGI,[25],188 nM and 181 nM
same,TGI,[26],5.4 nM
same,GI50,[27],80.8 nM
same,TGI,[27],184 nM and 183 nM
same,GI50,[28],37.5 nM
same,TGI,[28],31.1 nM and 70.4 nM
same,GI50,[29],37.5 nM
same,TGI,[29],27.1 nM and 38.8 nM
same,TGI,[30],6.26 nM
same,GI50,[31],37.5 nM
same,TGI,[31],143 nM and 255 nM
same,TGI,[32],22.9 nM
same,GI50,[33],37.5 nM
same,TGI,[33],68.6 nM and 49.5 nM
same,GI50,[34],73.8 nM
same,TGI,[34],277 nM and 260 nM
same,GI50,[35],37.5 nM
same,TGI,[35],92.6 nM and 47.2 nM
same,GI50,[36],63800 nM
same,TGI,[36],245000 nM
same,GI50,[37],69500 nM
same,TGI,[37],261000 nM
same,GI50,[38],37.5 nM
same,TGI,[38],134 nM and 80.3 nM
same,GI50,[39],6.24 nM
same,TGI,[39],27 nM and 39.9 nM
same,GI50,[40],7.96 nM
same,TGI,[40],149 nM and 43.7 nM
same,GI50,[41],37.5 nM
same,TGI,[41],98.2 nM and 63.5 nM
same,GI50,[42],37.5 nM
same,TGI,[42],38.3 nM and 41.4 nM
same,GI50,[43],37.5 nM
same,TGI,[43],54.2 nM and 97.6 nM
same,TGI,[44],289 nM and 171 nM
same,GI50,[45],37.5 nM
same,TGI,[45],46 nM and 40 nM
same,GI50,[46],43.5 nM
same,TGI,[46],104 nM and 117 nM
same,GI50,[47],37.5 nM
same,GI50,[48],37.5 nM
same,TGI,[48],119 nM and 393 nM
same,TGI,[49],225 nM and 244 nM
same,GI50,[50],37.5 nM
same,TGI,[50],188 nM and 116 nM
same,GI50,[51],37.5 nM
same,TGI,[51],470 nM and 86.6 nM
same,GI50,[52],10 nM
same,TGI,[52],170 nM and 56.1 nM
same,GI50,[53],37.5 nM
same,TGI,[53],151 nM and 109 nM
same,GI50,[54],37.5 nM
same,TGI,[54],105 nM and 823 nM
same,GI50,[55],37.5 nM
same,TGI,[55],82.7 nM and 47.8 nM
same,GI50,[56],66.7 nM
same,TGI,[56],131 nM and 95 nM
same,GI50,[57],13.8 nM
same,TGI,[57],26 nM and 55.3 nM
CCCCCCCCCCCCCC(=O)OCC1OC(OC)C(NC(=O)N(CCCl)N=O)C(O)C1O (centres undefined),TGI,[58],17000 nM
same,TGI,[1],65600 nM
same,TGI,[2],58200 nM
same,TGI,[59],49100 nM
same,TGI,[3],> 100000 nM
same,TGI,[4],30200 nM
same,TGI,[5],98500 nM
same,TGI,[6],81300 nM
same,TGI,[7],57300 nM
same,TGI,[8],47100 nM
same,TGI,[10],65600 nM
same,TGI,[11],38200 nM
same,TGI,[12],> 100000 nM
same,TGI,[14],> 100000 nM
same,TGI,[15],75900 nM
same,TGI,[17],50400 nM
same,TGI,[18],> 100000 nM
same,TGI,[19],56800 nM
same,TGI,[20],64400 nM
same,TGI,[21],52200 nM
same,TGI,[22],25700 nM
same,TGI,[60],38800 nM
same,TGI,[61],39600 nM
same,TGI,[24],56800 nM
same,TGI,[26],29400 nM
same,TGI,[27],75700 nM
same,TGI,[28],28600 nM
same,TGI,[29],25100 nM
same,TGI,[32],53200 nM
same,TGI,[33],50700 nM
same,TGI,[34],91100 nM
same,TGI,[35],61100 nM
same,TGI,[38],42600 nM
same,TGI,[39],32100 nM
same,TGI,[62],53900 nM
same,TGI,[40],40100 nM
same,TGI,[42],12900 nM
same,TGI,[43],71200 nM
same,TGI,[44],59400 nM
same,TGI,[45],45100 nM
same,TGI,[47],76300 nM
same,TGI,[49],> 100000 nM
same,TGI,[50],73500 nM
same,TGI,[51],90700 nM
same,TGI,[63],26700 nM
same,TGI,[52],30900 nM
same,TGI,[64],90700 nM
same,TGI,[53],52400 nM
same,TGI,[54],30200 nM
same,TGI,[55],20100 nM
same,TGI,[56],51700 nM
same,TGI,[57],36700 nM
CC(=O)OC(C)(C)C1CCC(C)(C(O)COc2ccc(CCNC(=O)c3ccccc3)cc2)O1 (centres undefined),TGI,[58],> 100000 nM
same,TGI,[2],> 100000 nM
same,TGI,[59],> 100000 nM
same,TGI,[3],> 100000 nM
same,TGI,[4],> 100000 nM
same,TGI,[5],> 100000 nM
same,TGI,[6],> 100000 nM
same,TGI,[7],62200 nM
same,TGI,[8],> 100000 nM
same,TGI,[11],> 100000 nM
same,TGI,[12],> 100000 nM
same,TGI,[13],67800 nM
same,TGI,[14],> 100000 nM
same,TGI,[15],> 100000 nM
same,TGI,[16],> 100000 nM
same,TGI,[17],> 100000 nM
same,TGI,[18],> 100000 nM
same,TGI,[20],> 100000 nM
same,TGI,[21],> 100000 nM
same,TGI,[22],> 100000 nM
same,TGI,[60],> 100000 nM
same,TGI,[61],> 100000 nM
same,TGI,[23],> 100000 nM
same,TGI,[24],> 100000 nM
same,TGI,[26],42500 nM
same,TGI,[28],> 100000 nM
same,TGI,[29],> 100000 nM
same,TGI,[30],> 100000 nM
same,TGI,[32],> 100000 nM
same,TGI,[33],> 100000 nM
same,TGI,[34],> 100000 nM
same,TGI,[35],> 100000 nM
same,TGI,[38],> 100000 nM
same,TGI,[39],> 100000 nM
same,TGI,[40],> 100000 nM
same,TGI,[41],> 100000 nM
same,TGI,[42],> 100000 nM
same,TGI,[43],> 100000 nM
same,TGI,[44],> 100000 nM
same,TGI,[45],29400 nM
same,TGI,[46],> 100000 nM
same,TGI,[47],> 100000 nM
same,TGI,[49],> 100000 nM
same,TGI,[50],> 100000 nM
same,TGI,[51],> 100000 nM
same,TGI,[63],> 100000 nM
same,TGI,[52],> 100000 nM
same,TGI,[64],> 100000 nM
same,TGI,[53],> 100000 nM
same,TGI,[54],> 100000 nM
same,TGI,[55],> 100000 nM
same,TGI,[56],> 100000 nM
same,TGI,[57],33400 nM
